Structures are written as SMILES. “Also recorded” adds a separate entry of the source.

This data set can be described thus: Solubility in solvents and monomer. Type of data set: physicochemical.

For `C=C(C)C(=O)NCCCNC(=O)c1ccc(C(=O)c2ccccc2)cc1` [APMA-BBC, N-[3-(4-benzoylbenzamido)propyl]methacrylamide], the “Solubility in N-vinylpyrrolidone” value is on record as “readily soluble; also recorded: Freely soluble” and the “Solubility in THF” value is “Freely soluble”.

For the molecule `C=C(C)C(=O)OCCOC(=O)c1ccc(C(=O)c2ccccc2)cc1` [HEMA-BBA, 1-(4-benzoylbenzoic acid)-2-methaacrylic acid-glycolester], the “Solubility in N-vinylpyrrolidone” value is “only slowly soluble” and the “Solubility in THF” value is “moderately soluble”. Moreover, under “acetone”, the Solubility in acetone result was “insoluble”. Also, the Solubility in chloroform entry (chloroform) was “highly soluble”. In addition, the “Solubility in deionized water” value (deionized water) is “insoluble”. Further, under “ethanol”, the Solubility in ethanol entry was “insoluble”. Moreover, the “Solubility in ethyl acetate” value (ethyl acetate) is recorded as “insoluble”. Further, the Solubility in n-heptane entry (n-heptane) is given as “slightly to sparingly soluble”.
